We go through one compound from patent US9567318B2, “Substituted pyrimidine compounds and uses thereof” (Memorial Sloan-Kettering Cancer Center, priority 2009, dated 2017).

The subject of one assay is MDA-MB-468 cells. As to the kind of experiment: Propidium iodide staining and flow cytometry (cell cycle, hypodiploid population, TNFα). The format is cell-based, human. The following applies: YK5 1 μM, TNFα 20 ng/ml. How it is done: FIG. 12. YK5 affects the major hallmarks of cancer: inhibits proliferation and invasiveness and arrests cancer cells in the cell cycle. (a) The indicated cancer cells were incubated with increasing concentrations of inhibitors and growth over 72 h was assessed. Y-axis values below 0% represent cell death of the starting population. Drugs were assayed in triplicate. (b) Mice (n=5) bearing MDA-MB-468 subcutaneously (s.c.) xenografted tumors that reached a volume of approximately 100-200 mm^3, were administered i.t. YK5 or vehicle as described in Methods. Tumor volume (mm^3) was estimated from caliper measurements. (c) Cells were treated for 24 h with indicated concentrations of YK5. DNA content was analyzed by propidium iodide staining and flow cytometry (left), whereas proteins by western blotting (right). (d) Hsp70 client proteins isolated by YK55-beads from SKBr3 and MDA-MB-468 extracts (500 μg) were analyzed by western blotting. Control beads contain D-biotin (100 μM) attached. (e) MDA-MB-231 breast cancer cells were treated for 24 h with YK5 (1 μM) and protein extracts were subjected to immunoblotting (upper) or pre-treated for 24 h with vehicle or YK5, and viable cells able to migrate through Matrigel over a 20 h period were quantified and data graphed (lower). […]
FIG. 13. […] (a,b) Apoptotic cells were quantified by dual acridine orange/ethidium bromide staining as described in Methods. […]
Background: Flow cytometry measures light scatter and fluorescence of single cells or particles in a stream.

Assay [1] relates to STAT1 in MDA-MB-468 cells. As to the kind of experiment: Activated STAT1 DNA binding assay (ELISA). The format is cell-based, human. The following applies: IFNγ 100 ng/ml. On the procedure: FIG. 19. YK5 enhances the nuclear content of IFNγ activated STAT1 and potentiates its binding to DNA. MDAMB-468 cells were treated with IFNγ (100 ng/ml) or co-treated with IFNγ (100 ng/ml) and YK5 (10 μM). (a) Activated STAT1 (pTyr701), was determined by immunofluorescent microscopy with a secondary antibody conjugated with FITC. Nuclear staining was performed with DAPI. (b) Activated STAT1 binding to STAT consensus binding site (5′-[…]-3′) was determined by an ELISA-based assay. Activated STAT1, contained in lysates from untreated (white bar), treated with YK5 (light grey bar), IFNγ (dark grey bars) or the combination of IFNγ and YK5 (black bars) cells, and bound to the oligonucleotide, was detected through use of an anti-STAT1 antibody. Assays were performed in the absence or presence of 20 pmol of competitor oligonucleotide that contains either a wild-type or a mutated STAT consensus binding site using IFNγ-treated cells (dark grey bars). […] Results are expressed as mean absorbance values (OD450 nm) with SEM.
Activated STAT1 DNA binding assay. […] After HRP substrate addition, absorbance was read at 450 nm with a reference wavelength of 655 nm (Synergy4, Biotek, Winooski, Vt.). In this assay the absorbance is directly proportional to the quantity of DNA-bound transcription factor present in the sample. […] Results were expressed as mean absorbance values with SEM. […]
(ELISA stands for enzyme-linked immunosorbent assay.)

Structures are written as SMILES.

For the compound `C=CC(=O)Nc1cc(N)nc(Sc2c(OC)nc(N3CCN(C)CC3)nc2OC)n1` [YK5, N-(6-amino-2-(4,6-dimethoxy-2-(4-methylpiperazin-1-yl)pyrimidin-5-ylthio)pyrimidin-4-yl)acrylamide], in the assay with MDA-MB-468 cells, the “apoptotic effect of TNFα” value is reported as “increased the apoptotic effect of TNFα”. Moreover, the “DNA-binding efficacy of activated STAT1” value in assay [1] is “increased its DNA-binding efficacy”.
